Some results are limits rather than exact numbers.

Type in all cases: cell-based
Experiment [1] concerns the target T1, BaF3 TELJAK2 cells (BafT_J2) (Homo sapiens, UniProt O60674).
T1 construct: fused on or other part: TEL (ETV6) N-terminal part, coding nucleotides 1-487, serves as the oligomerising partner; It is fused through a Sal I site to the JAK2 kinase domain and expressed from pTRE2 in BaF3 cells bearing pTET-off; P41212 (Transcription factor ETV6)
The experiment in a line: Cellular screening, BaF3 TEL:JAK2 cells, Alamar Blue. As to conditions: 40 hr, read-out: BafT_J2 IC50_nM. The gist of the method:
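Tet-off BaF3 cells carrying a TEL (nt 1-487)–JAK2 kinase-domain fusion, grown factor-independently in DMEM with 10% Tet-approved FBS without WEHI 3B medium. Compounds were diluted to 20 μM in screening plates, and cells (50,000–200,000 cell/mL at 1.1×) were incubated 40 hr at 37 °C, 5% CO2. Alamar Blue was then added for 4-6 hours; read at 544 nm.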
For orientation: Alamar Blue is a resazurin reagent that responds to reducing activity.

A further experiment concerns CTLL2. The experiment can be described thus: Cellular screening, CTLL2 cells, Alamar Blue. The following applies: Mus musculus, CTLL-2, read-out: CTLL2 IC50_nM. The gist of the method: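 Viability is read with Alamar Blue at 544 nm, the dye added for the final 4-6 hours. Compounds were incubated for 40 hr with CTLL2 cells taken from late-log-phase culture, at 37° C in 5% CO2.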

Another experiment addresses T2, BaF3 TELJAK3 cells (Homo sapiens, UniProt P52333).
T2 construct: fused on or other part: TEL (ETV6) N-terminal part, coding nucleotides 1-487, serves as the oligomerising partner; It is fused through a Sal I site to the JAK3 kinase domain and expressed from pTRE2 in BaF3 cells bearing pTET-off; P41212 (Transcription factor ETV6)
T2 sequence (P52333 1-1124): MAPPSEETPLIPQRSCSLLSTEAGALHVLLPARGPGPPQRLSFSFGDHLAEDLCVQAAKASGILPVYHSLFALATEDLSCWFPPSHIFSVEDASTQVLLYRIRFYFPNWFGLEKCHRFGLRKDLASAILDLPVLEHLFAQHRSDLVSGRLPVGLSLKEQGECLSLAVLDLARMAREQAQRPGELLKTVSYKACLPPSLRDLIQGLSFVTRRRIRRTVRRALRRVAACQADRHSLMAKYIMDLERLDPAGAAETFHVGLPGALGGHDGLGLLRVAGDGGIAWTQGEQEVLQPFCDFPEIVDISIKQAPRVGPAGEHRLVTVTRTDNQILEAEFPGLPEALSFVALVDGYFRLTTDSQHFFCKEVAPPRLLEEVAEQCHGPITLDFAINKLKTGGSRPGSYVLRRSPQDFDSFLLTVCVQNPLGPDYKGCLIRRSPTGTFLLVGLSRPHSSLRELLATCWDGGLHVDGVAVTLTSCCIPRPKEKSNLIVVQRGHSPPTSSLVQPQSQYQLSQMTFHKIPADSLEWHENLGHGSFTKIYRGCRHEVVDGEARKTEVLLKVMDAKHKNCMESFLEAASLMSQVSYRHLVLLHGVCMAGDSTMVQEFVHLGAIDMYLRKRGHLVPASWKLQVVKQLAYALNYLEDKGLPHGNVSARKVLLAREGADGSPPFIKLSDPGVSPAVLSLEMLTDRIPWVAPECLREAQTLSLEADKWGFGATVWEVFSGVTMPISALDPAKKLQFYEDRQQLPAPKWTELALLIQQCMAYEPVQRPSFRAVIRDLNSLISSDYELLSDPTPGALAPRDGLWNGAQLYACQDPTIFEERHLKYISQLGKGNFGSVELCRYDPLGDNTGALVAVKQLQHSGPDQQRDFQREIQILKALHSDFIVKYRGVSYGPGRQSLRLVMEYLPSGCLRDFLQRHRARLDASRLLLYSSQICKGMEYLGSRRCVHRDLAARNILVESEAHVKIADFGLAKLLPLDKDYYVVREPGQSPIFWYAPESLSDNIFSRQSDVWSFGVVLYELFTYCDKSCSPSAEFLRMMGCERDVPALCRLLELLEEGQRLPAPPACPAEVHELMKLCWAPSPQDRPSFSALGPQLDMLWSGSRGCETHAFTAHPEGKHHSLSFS
The experiment can be described thus: Cellular screening, BaF3 TEL:JAK3 cells, Alamar Blue. As to conditions: 40 hr, read-out: BafT_J3 IC50_nM. The gist of the method:
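Alamar Blue signal at 544 nm, developed for 4–6 h, measured viability after 40 h of compound treatment at 37 °C, 5% CO2. Cells were growth-factor-independent BaF3 lines transfected with a TEL/JAK3 kinase-domain fusion under tet-off control. They were cultured in DMEM, 10% Tet-approved FBS, lacking WEHI 3B conditioned medium.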

T1 sequence (O60674 whole entry, change not shown, the tested form may be a part): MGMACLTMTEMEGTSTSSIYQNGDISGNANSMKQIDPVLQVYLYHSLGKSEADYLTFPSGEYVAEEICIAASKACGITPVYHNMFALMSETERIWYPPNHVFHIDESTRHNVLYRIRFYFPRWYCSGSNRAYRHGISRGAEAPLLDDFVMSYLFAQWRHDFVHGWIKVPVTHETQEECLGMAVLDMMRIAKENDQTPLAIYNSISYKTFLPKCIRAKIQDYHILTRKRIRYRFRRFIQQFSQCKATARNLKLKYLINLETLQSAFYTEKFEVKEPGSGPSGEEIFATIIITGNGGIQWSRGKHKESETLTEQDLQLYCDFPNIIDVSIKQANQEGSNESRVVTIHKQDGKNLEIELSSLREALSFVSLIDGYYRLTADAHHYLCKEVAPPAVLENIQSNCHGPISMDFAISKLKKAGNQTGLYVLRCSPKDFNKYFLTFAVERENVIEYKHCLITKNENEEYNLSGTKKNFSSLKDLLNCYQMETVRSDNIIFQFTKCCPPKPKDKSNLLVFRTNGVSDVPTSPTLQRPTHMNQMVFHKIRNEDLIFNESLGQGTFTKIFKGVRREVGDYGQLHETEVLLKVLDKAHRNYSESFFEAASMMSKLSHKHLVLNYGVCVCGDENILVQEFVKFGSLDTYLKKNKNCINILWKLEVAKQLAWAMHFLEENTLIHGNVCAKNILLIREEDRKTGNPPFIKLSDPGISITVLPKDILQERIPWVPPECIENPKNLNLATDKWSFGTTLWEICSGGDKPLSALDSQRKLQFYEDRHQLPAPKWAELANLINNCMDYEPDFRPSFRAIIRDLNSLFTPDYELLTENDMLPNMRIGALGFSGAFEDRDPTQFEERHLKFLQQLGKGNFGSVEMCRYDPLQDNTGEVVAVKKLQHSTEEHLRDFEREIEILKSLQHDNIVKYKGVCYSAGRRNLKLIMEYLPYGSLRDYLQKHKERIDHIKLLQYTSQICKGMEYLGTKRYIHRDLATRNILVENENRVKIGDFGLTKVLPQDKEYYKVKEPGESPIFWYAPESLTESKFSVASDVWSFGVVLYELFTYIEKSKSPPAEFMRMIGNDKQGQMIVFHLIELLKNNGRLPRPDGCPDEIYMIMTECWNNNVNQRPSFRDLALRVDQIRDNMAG

Regarding `C=CC(=O)Nc1ccc(Sc2ccnc(Nc3ccc(S(=O)(=O)NCc4ccccc4)cc3)n2)cc1` [Compound 368, N-(4-(2-(4-(N-benzylsulfamoyl)phenylao)pyrimidin-4-ylthio)phenyl)acrylamide], the figures for the GI50 (in experiment [1]; at BaF3 TELJAK3 cells) were below 20 µM and below 5 µM, respectively. For the same molecule, the IC50 with CTLL2 was below 5 µM.
`C=CC(=O)Nc1ccc(Sc2ccnc(Nc3ccc(S(=O)(=O)N4CCN(C)CC4)cc3)n2)cc1` [Compound 370, N-(4-(2-(4-(4-methylpiperazin-1-ylsulfonyl)phenylao)pyrimidin-4-ylthio)phenyl)acrylamide]: the GI50 was below 20 µM in experiment [1] and below 5 µM at BaF3 TELJAK3 cells. Besides, the IC50 in the experiment on CTLL2 was below 5 µM.
In the case of `C=CC(=O)Nc1ccc(Sc2ccnc(Nc3ccc(S(=O)(=O)NCCC(C)C)cc3)n2)cc1` [Compound 371, N-(4-(2-(4-(N-isopentylsulfamoyl)phenylao)pyrimidin-4-ylthio)phenyl)acrylamide], the results for the GI50 (in experiment [1]; at BaF3 TELJAK3 cells) were below 20 µM and below 5 µM, respectively. The IC50 in the experiment on CTLL2 was below 5 µM.
With `C=CC(=O)Nc1ccc(Sc2ccnc(Nc3cccc(S(=O)(=O)N4CCOCC4)c3)n2)cc1` [Compound 372, N-(4-(2-(3-(morpholinosulfonyl)phenylao)pyrimidin-4-ylthio)phenyl)acrylamide], the GI50 (in experiment [1]; at BaF3 TELJAK3 cells) was below 5 µM in each case. Further, the IC50 with CTLL2 was below 5 µM.
Turning to `C=CC(=O)Nc1ccc(Sc2ccnc(Nc3ccc(S(=O)(=O)N4CCOCC4)c(OC)c3)n2)cc1` [Compound 373, N-(4-(2-(3-methoxy-4-(morpholinosulfonyl)phenylao)pyrimidin-4-ylthio)phenyl)acrylamide], the GI50 (in experiment [1]; at BaF3 TELJAK3 cells) was below 5 µM throughout. Moreover, the IC50 with CTLL2 was below 5 µM.
Regarding `O=C(Nc1ccc(Sc2ccnc(Nc3ccc(N4CCOCC4)cc3)n2)cc1)C1CC1(F)Cl` (stereo not drawn) [Compound 378, 2-chloro-2-fluoro-N-(4-(2-(4-morpholinophenylao)pyrimidin-4-ylthio)phenyl)cyclopropanecarboxamide], the GI50 (in experiment [1]; on BaF3 TELJAK3 cells) was below 1 µM each time. In addition, the IC50 in the experiment with CTLL2 was above 20 µM.
Consider `Cc1cnc(Nc2ccc(N3CCOCC3)cc2)nc1Sc1ccc(NC(=O)/C(Br)=C\C(=O)O)cc1` [Compound 381, (E)-3-bromo-4-(4-(5-methyl-2-(4-morpholinophenylao)pyrimidin-4-ylthio)phenylao)-4-oxobut-2-enoic acid], for which the GI50 in experiment [1] was above 20 µM; on BaF3 TELJAK3 cells, below 20 µM. Further, the IC50 with CTLL2 is below 20 µM.
With `Cc1cnc(Nc2ccc(N3CCOCC3)cc2)nc1Sc1ccc(NC(=O)CCC(=O)O)cc1` [Compound 383, 4-(4-(5-methyl-2-(4-morpholinophenylao)pyrimidin-4-ylthio)phenylao)-4-oxobutanoic acid], the GI50 in experiment [1] is below 20 µM; on BaF3 TELJAK3 cells, above 20 µM. Further, the IC50 in the experiment with CTLL2 was below 20 µM.
`Cc1cnc(Nc2ccc(N3CCOCC3)cc2)nc1Sc1ccc(N2C(=O)CCC2=O)cc1` [Compound 384, 1-(4-(5-methyl-2-(4-morpholinophenylao)pyrimidin-4-ylthio)phenyl)pyrrolidine-2,5-dione]: the GI50 (in experiment [1]; at BaF3 TELJAK3 cells) was above 20 µM throughout. In addition, in the experiment on CTLL2, the IC50 is above 20 µM.
As to `CNC(=O)CCC(=O)Nc1ccc(Sc2nc(Nc3ccc(N4CCOCC4)cc3)ncc2C)cc1` [Compound 386, N1-methyl-N4-(4-(5-methyl-2-(4-morpholinophenylao)pyrimidin-4-ylthio)phenyl)succinamide], the GI50 (in experiment [1]; at BaF3 TELJAK3 cells) was above 20 µM each time. Moreover, the IC50 in the experiment on CTLL2 is above 20 µM.
Consider `Cc1cnc(Nc2ccc(N3CCOCC3)cc2)nc1Sc1ccc(NC(=O)/C=C/C(=O)O)cc1` [Compound 387, (E)-4-(4-(5-methyl-2-(4-morpholinophenylao)pyrimidin-4-ylthio)phenylao)-4-oxobut-2-enoic acid], for which the GI50 (in experiment [1]; on BaF3 TELJAK3 cells) was above 20 µM throughout. Also, in the experiment on CTLL2, the IC50 was above 20 µM.
On to `CCOC(=O)/C=C\C(=O)Nc1ccc(Sc2nc(Nc3ccc(N4CCOCC4)cc3)ncc2C)cc1` [Compound 388, (Z)-ethyl 4-(4-(5-methyl-2-(4-morpholinophenylao)pyrimidin-4-ylthio)phenylao)-4-oxobut-2-enoate], for which the GI50 (in experiment [1]; at BaF3 TELJAK3 cells) was below 5 µM throughout. In the experiment on CTLL2, the IC50 was below 5 µM.
Regarding `Cc1cnc(Nc2ccc(N3CCOCC3)cc2)nc1Sc1ccc(N2C(=O)C=CC2=O)cc1` [Compound 390, 1-(4-(5-methyl-2-(4-morpholinophenylao)pyrimidin-4-ylthio)phenyl)-1H-pyrrole-2,5-dione], the GI50 (in experiment [1]; on BaF3 TELJAK3 cells) was below 5 µM each time. In addition, the IC50 with CTLL2 was below 5 µM.
Regarding `C=CC(=O)Nc1ccc(Sc2ccnc(Nc3ccc4c(c3)OCO4)n2)cc1` [Compound 393, N-(4-(2-(benzo[d][1,3]dioxol-5-ylao)pyrimidin-4-ylthio)phenyl)acrylamide], the GI50 was below 20 µM in experiment [1] and below 1 µM on BaF3 TELJAK3 cells. The IC50 in the experiment with CTLL2 was below 5 µM.
